Measurements published in publication PMC7409368 (Free radical biology & medicine, 2018).

Biological target: T1, Drosophila MSRA (Drosophila melanogaster, UniProt P08761, C232S/C246S)
T1 sequence (P08761 2-246 C232S/C246S): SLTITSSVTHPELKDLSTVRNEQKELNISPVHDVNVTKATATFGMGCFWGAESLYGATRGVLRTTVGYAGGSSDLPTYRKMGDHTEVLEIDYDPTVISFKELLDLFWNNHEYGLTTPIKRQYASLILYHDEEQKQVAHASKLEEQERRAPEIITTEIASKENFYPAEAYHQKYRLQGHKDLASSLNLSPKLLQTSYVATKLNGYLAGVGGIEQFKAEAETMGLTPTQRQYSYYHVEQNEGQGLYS
Experiment: intact protein mass spectrometry after incubation with MetO
Assay type: biochemical
Conditions: no dithiothreitol; oxidation of active site cysteine

## C[S+]([O-])CC[C@H](N)C(=O)O (stereo partly drawn) [MetO, L-Methionine Sulfoxide]
  intact protein mass spectrometry after incubation with MetO: when the C232S/C246S mutant was incubated with MetO, we observed that the mass
